Experimental data reported in patent US7115651B2, “Macrocycles and uses thereof” (Sloan-Kettering Institute for Cancer Research, priority 2000, dated 2006).

Key:
[1] = test system: small cell lung cancer cell line with defective Rb function; assay: inhibition of small cell lung cancer cells with defective Rb function; format: cell-based, human; details: for inhibition of small cell lung cancer cell line with defective Rb function / potency compared with 17-AGG in small cell lung cancer cell line with defective Rb function: FIG. 20
Method: (§1) The human cancer cell lines MCF7, BT474 and N417 were obtained from the American Type Culture Collection (Manassas, Va., USA) and maintained in a 1:1 mixture of DME:F12 supplemented with 2 mM glutamine, 50 U/mL penicillin, 50 U/mL streptomycin and 5% heat inactivated fetal bovie serum (Gemini Bioproducts) and incubated at 37° C. in 5% CO2.
(§2) Growth assays were performed by seeding 10000 cells (MCF7, BT474 or N417) per well in 6-well dishes and incubating for 24 h before drug treatment. Drugs or vehicle were administered as outlined for each experiment, and cells were incubated for the time periods depcited and then the number quantified by a Coulter counter.

[2] = test system: P. falciparum; details: against P. falciparum; Isaka et al. 2002; cited from earlier work
[3] = test system: KB cells; details: against KB cells; Isaka et al. 2002; cited from earlier work
[4] = test system: HSP90; assay: binding of aigialomycin D to HSP90; details: compared with radicicol
[5] = test system: MCF7 cells (HER2 overexpressed, Rb positive); assay: growth of MCF7 cells treated with radicicol and analogues; format: cell-based, human
Method: as §1, §2

[6] = test system: breast cancer cell with wild type Rb; assay: inhibition of breast cancer cells with wild type Rb; format: cell-based, human; details: FIG. 20
Method: as §1, §2

[7] = test system: Rb negative cells; assay: cell cycle effect in Rb negative cells; format: cell-based
Method: (§3) Cell cycle distribution was assayed according to Nusse et al. with a Becton Dickinson fluorescence-activated cell sorter and analyzed by a Cell Cycle Multi-cycle system (Phoenix Flow System, San Diego, Calif., USA).

[8] = test system: Rb (retinoblastoma) positive cells; assay: cell cycle effect in Rb positive cells; format: cell-based
Method: as §3

[9] = test system: HER2; assay: reduction of HER2 in MCF7 and BT474 cells (protein assay, anti-Her2 blot); format: cell-based, human; details: 0.5 μM through 5 μM
Method: The human cancer cell lines MCF7, BT474 and […] were obtained from the American Type Culture Collection (Manassas, Va., USA) and maintained in a 1:1 mixture of DME:F12 supplemented with 2 mM glutamine, 50 U/mL penicillin, 50 […] and 5% heat inactivated fetal bovie serum (Gemini Bioproducts) and incubated at 37° C. in 5% CO2. Cells were grown to 60-70% confluence and exposed to drugs or DMSO vehicle for the indicated time periods. Lysates were prepared using 5 mM Tris pH 7.4, 2% SDS and 10% glycerol lysis buffer. Protein concentration was determined using the BCA kit (Pierce Chemical Co.) according to the manufacturer's instructions. Clarified protein lysates (20-50 μg) were electrophoretically resolved on denaturing SDS-PAGE, transferred to ntirocellulose and probed with the following primary antibodies: anti-Her2 (C-18).

Molecule: C=CCNC1=C2C[C@@H](C)C[C@H](OC)[C@H](O)[C@@H](C)/C=C(\C)[C@H](OC(N)=O)[C@@H](OC)/C=C\C=C(/C)C(=O)NC(=CC1=O)C2=O [17-AGG, 17-allylaminogeldanamycin]
- potency in cells with wild type Rb versus cells with defective Rb function ([1]; wild type Rb vs defective Rb): much more potent against cells with wild type Rb than in cells with defective Rb function

Molecule: C[C@H]1C/C=C/[C@@H](O)[C@@H](O)CC/C=C/c2cc(O)cc(O)c2C(=O)O1 [Aigialomycin D]
- antimalarial activity IC50 [2]: 6.6 µg/mL
- antitumor activity IC50 [3]: 3.0 µg/mL
- binding to HSP90 [4]: does bind to HSP90 (though significantly less so than radicicol (2))

Molecule: C[C@@H]1C[C@H]2O[C@@H]2/C=C\C=C\C(=O)Cc2c(Cl)c(O)cc(O)c2C(=O)O1 [Radicicol]
- efficacy in side by side experiment with radicicol (growth of MCF7 cells, FIG. 19) [5]: demonstrated efficacy
- inhibition of breast cancer cell with wild type Rb [6]: potent inhibitors
- cell cycle block in Rb negative cells [7]: blocked in the M (mitosis) phase
- inhibition of small cell lung cancer cell line with defective Rb function [1]: potent inhibitors
- potency compared with 17-AGG in small cell lung cancer cell line with defective Rb function [1]: much more potent than 17-AGG
- cell cycle block in Rb positive cells [8]: clear G1 (growth) phase block

Molecule: C[C@@H]1C[C@H]2C[C@@H]2/C=C\C=C\C(=O)Cc2c(Cl)c(O)cc(O)c2C(=O)O1 [cyclopropyl radicicol, Cycloproparadicicol]
- inhibition of breast cancer cell with wild type Rb [6]: potent inhibitors
- effectiveness in reducing HER2 compared with radicicol [9]: at least as effective, if not better than radicicol
- inhibition of small cell lung cancer cell line with defective Rb function [1]: potent inhibitors
- potency compared with 17-AGG in small cell lung cancer cell line with defective Rb function [1]: much more potent than 17-AGG

Molecule: radicicol oxime [VII]
- efficacy in side by side experiment with radicicol (growth of MCF7 cells, FIG. 19) [5]: demonstrated efficacy
